Data published in patent US9796733B2, “Imidazo-pyrazine derivatives useful as soluble guanylate cyclase activators” (Merck Sharp & Dohme Corp., priority 2014, dated 2017).

Molecular target: T1, sGC α1/β1 heterodimer (Homo sapiens, UniProt Q02108+Q02153)
T1 construct: expressed in transfected cells; host or cells: CHO-K1 (clone #7, CHO-K1/sGC)
T1 sequence (Q02108 1-690): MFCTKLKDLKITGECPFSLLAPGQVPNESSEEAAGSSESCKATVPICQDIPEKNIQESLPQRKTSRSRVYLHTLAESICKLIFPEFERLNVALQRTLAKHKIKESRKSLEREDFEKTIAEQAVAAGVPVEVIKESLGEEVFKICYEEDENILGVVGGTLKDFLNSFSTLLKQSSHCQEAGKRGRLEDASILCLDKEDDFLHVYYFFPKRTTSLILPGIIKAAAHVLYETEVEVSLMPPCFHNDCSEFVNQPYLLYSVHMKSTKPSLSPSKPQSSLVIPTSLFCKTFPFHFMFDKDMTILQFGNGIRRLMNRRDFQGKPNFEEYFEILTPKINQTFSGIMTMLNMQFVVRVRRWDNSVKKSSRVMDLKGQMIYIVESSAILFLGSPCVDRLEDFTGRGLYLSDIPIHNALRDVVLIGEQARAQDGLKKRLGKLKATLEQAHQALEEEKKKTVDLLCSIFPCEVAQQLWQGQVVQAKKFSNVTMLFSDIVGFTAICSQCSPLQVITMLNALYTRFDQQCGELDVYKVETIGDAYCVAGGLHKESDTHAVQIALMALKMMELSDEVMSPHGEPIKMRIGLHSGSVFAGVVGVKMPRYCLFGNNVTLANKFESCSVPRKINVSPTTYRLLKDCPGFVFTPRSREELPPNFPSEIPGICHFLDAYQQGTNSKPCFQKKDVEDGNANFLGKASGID
T1 sequence (Q02153 1-619): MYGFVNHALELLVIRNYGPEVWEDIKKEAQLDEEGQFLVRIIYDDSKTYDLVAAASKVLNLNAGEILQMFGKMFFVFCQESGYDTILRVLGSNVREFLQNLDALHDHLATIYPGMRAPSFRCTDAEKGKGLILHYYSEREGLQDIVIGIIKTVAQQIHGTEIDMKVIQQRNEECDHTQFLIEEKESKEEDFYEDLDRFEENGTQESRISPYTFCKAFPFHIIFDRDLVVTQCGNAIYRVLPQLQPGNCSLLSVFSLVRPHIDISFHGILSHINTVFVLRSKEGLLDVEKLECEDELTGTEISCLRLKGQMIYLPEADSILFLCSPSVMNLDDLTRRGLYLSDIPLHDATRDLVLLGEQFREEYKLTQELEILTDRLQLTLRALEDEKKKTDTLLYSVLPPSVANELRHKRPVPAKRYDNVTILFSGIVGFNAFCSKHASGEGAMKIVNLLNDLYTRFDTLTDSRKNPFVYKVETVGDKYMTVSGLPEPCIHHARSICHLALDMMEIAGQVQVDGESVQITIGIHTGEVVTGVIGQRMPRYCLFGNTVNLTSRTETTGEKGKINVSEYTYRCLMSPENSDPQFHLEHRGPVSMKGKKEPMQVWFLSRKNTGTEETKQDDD
Experiment: Cell-based sGC functional assay (CASA assay): cGMP generation in CHO-K1/sGC cells, HTRF detection
Conditions: for Emax: CHO-K1, percent activation relative to standard Compound A in CHO-K1/sGC cells, read-out: % Act.; for EC50: inflection point (IP) of cGMP generation in CHO-K1/sGC cells, 4P fit, activity expressed as percentage of Compound A
Text: Biological Assay 1: Cell-Based sGC Functional Assay (CASA Assay)
sGC is a heme-containing enzyme that converts GTP to secondary messenger cGMP. Increases in cGMP levels affect several physiological processes including vasorelaxation through multiple downstream pathways. […] Heme-dependent activators (HDAs) preferentially activate sGC containing a ferrous heme group. To determine the effect of sGC activators on enzyme activity, the CASA assay was developed to monitor the generation of cGMP in a cell line that stably expresses the heterodimeric sGC protein.
A CHO-K1 cell line stably expressing the sGC α1/β1 heterodimer was generated using a standard transfection protocol. CHO-K1 cells were transfected with plasmids pIREShyghsGCal and pIRESneo-hsGCβ1 simultaneously using FUGENE reagent. Clones that stably express both subunits were selected with hygromycin and neomycin for 2 weeks. Clone #7 was chosen for the assay and was designated CHO-K1/sGC. CHO-K1/sGC cells were maintained in F-K12 medium containing 10% heat-inactivated Fetal Bovine Serum (FBS), 100 μg/mL penicillin/streptomycin, 0.5 mg/mL hygromycin and 0.25 mg/mL G418. The cells were then cryopreserved in LN2. On the day of the assay, cells thawed and resuspended in EBSS Assay Buffer (Sigma, E3024) supplemented with 5 mM MgCl2, 10 mM HEPES (4-(2-hydroxyethyl)piperazine-1-ethanesulfonic acid) and 0.05% BSA (bovine serum albumin) (EAB) and cell density was then adjusted to 4×10^5/mL with EAR IBMX (3-isobutyl-1-methylxanthin, 0.5 mM) was added to inhibit degradation of cGMP. Compounds were diluted from DMSO stock solutions and added to the assay at a final DMSO concentration of 2.5%. Cells were incubated with compounds in the presence and absence of 1 μM of Diethylenetriamine/nitric oxide adduct (DETA-NO; Sigma, 17018) for 1 hr at 37° C. At the end of the incubation period, the reaction was terminated and the cells were lysed with the detection reagents from Cisbio Kits. The level of intracellular cGMP was determined using an HTRF-based assay kit (CisBio, 62GM2PEC), which detects the displacement of a fluorescence labeled cGMP from its specific antibody. The cGMP produced by test compounds was directly compared to the maximum cGMP production (this value was set to equal 100% activation.) of the published sGC-HDA Compound A:
[drawing 597] (Example 1 in WO 2010/065275, published Jun. 10, 2010). The test compounds' activities were then expressed as a percentage of Compound A, the standard in every experiment. This percent activation was calculated either in the presence or absence of DETA-NO which was then plotted. IP and maximum fold induction was derived using ADA analysis software for 4P fit.
The compounds in the Examples of the instant invention had inflection points (IP) less than or equal to 10 μM and more particularly less than or equal to about 1 μM.

| Compound | Emax | EC50 |
| --- | --- | --- |
| Nc1nc(-c2cn3ccnc3c(CCC(F)(F)C(F)(F)F)n2)nc2c1C(c1cccnc1)(C1CC1)C(=O)N2 (single isomer, unassigned) [Example 359B, 4-amino-5-cyclopropyl-2-(8-(3,3,4,4,4-pentafluorobutyl)imidazo[1,2-a]pyrazin-6-yl)-5-(pyridin-3-yl)-5H-pyrrolo[2,3-d]pyrimidin-6(7H)-one] | 108% | 302 nM |
| CCCCc1nc(-c2nc(N)c3c(n2)NC(=O)C3(c2ccc(F)cc2)C2CCC2)cn2ccnc12 (single isomer, unassigned) [Example 361B, 4-amino-2-(8-butylimidazo[1,2-a]pyrazin-6-yl)5-cyclobutyl-5-(4-fluorophenyl)-5H-pyrrolo[2,3-d]pyrimidin-6(7H)-one] | 157% | 47 nM |
| Cc1nc(C2(C3CC3)C(=O)Nc3nc(-c4cn5ccnc5c(CCCC(F)(F)F)n4)nc(N)c32)ccc1F (single isomer, unassigned) [Example 362B, 4-amino-5-cyclopropyl-5-(5-fluoro-6-methylpyridin-2-yl)-2-(8-(4,4,4-trifluorobutyl)imidazo[1,2-a]pyrazin-6-yl)-5H-pyrrolo[2,3-d]pyrimidin-6(7H)-one] | 140% | 384 nM |
| Cc1cncc(C2(C3CC3)C(=O)Nc3nc(-c4cn5ccnc5c(CCC(F)(F)C(F)(F)F)n4)nc(N)c32)n1 (single isomer, unassigned) [Example 366B, 4-amino-5-cyclopropyl-5-(6-methylpyrazin-2-yl)-2-(8-(3,3,4,4,4-pentafluorobutyl)imidazo[1,2-a]pyrazin-6-yl)-5H-pyrrolo[2,3-d]pyrimidin-6(7H)-one] | 122% | 843 nM |
| CCCCc1nc(-c2nc(N)c3c(n2)NC(=O)C3(c2cc(C(F)(F)F)ccn2)C2CC2)cn2ccnc12 (single isomer, unassigned) [Example 367B, 4-amino-2-(8-butylimidazo[1,2-a]pyrazin-6-yl)-5-cyclopropyl-5-(4-(trifluoromethyl)pyridin-2-yl)-5H-pyrrolo[2,3-d]pyrimidin-6(7H)-one] | 170% | 155 nM |
| Nc1nc(-c2cn3ccnc3c(CCCC(F)(F)F)n2)nc2c1C(c1ncc(C(F)(F)F)cc1Cl)(C1CC1)C(=O)N2 (single isomer, unassigned) [Example 370B, 4-amino-5-(3-chloro-5-(trifluoromethyl)pyridin-2-yl)-5-cyclopropyl-2-(8-(4,4,4-trifluorobutyl)imidazo[1,2-a]pyrazin-6-yl)-5H-pyrrolo[2,3-d]pyrimidin-6(7H)-one] | 99% | 262 nM |
| Nc1nc(-c2cn3ccnc3c(CCCC(F)(F)F)n2)nc2c1C(c1ncc(Cl)cc1F)(C1CC1)C(=O)N2 (single isomer, unassigned) [Example 371A, 4-amino-5-(5-chloro-3-fluoropyridin-2-yl)-5-cyclopropyl-2-(8-(4,4,4-trifluorobutyl)imidazo[1,2-a]pyrazin-6-yl)-5H-pyrrolo[2,3-d]pyrimidin-6(7H)-one] | 82% | 194 nM |
| Cc1cc(C2(C3CC3)C(=O)Nc3nc(-c4cn5ccnc5c(CCC(F)(F)C(F)(F)F)n4)nc(N)c32)ncc1F (single isomer, unassigned) [Example 376B, 4-amino-5-cyclopropyl-5-(5-fluoro-4-methylpyridin-2-yl)-2-(8-(3,3,4,4,4-pentafluorobutyl)imidazo[1,2-a]pyrazin-6-yl)-5H-pyrrolo[2,3-d]pyrimidin-6(7H)-one] | 127% | 180 nM |

Next, values leading:

| Emax | EC50 | Compound |
| --- | --- | --- |
| 186% | 244 nM | Cc1nc(C2(C3CC3)C(=O)Nc3nc(-c4cn5ccnc5c(CCC(F)(F)C(F)(F)F)n4)nc(N)c32)ccc1F (single isomer, unassigned) [Example 363B, 4-amino-5-cyclopropyl-5-(5-fluoro-6-methylpyridin-2-yl)-2-(8-(3,3,4,4,4-pentafluorobutyl)imidazo[1,2-a]pyrazin-6-yl)-5H-pyrrolo[2,3-d]pyrimidin-6(7H)-one] |
| 138% | 273 nM | Cc1cc(Cl)cnc1C1(C2CC2)C(=O)Nc2nc(-c3cn4ccnc4c(CCCC(F)(F)F)n3)nc(N)c21 (single isomer, unassigned) [Example 364A, 4-amino-5-(5-chloro-3-methylpyridin-2-yl)-5-cyclopropyl-2-(8-(4,4,4-trifluorobutyl)imidazo[1,2-a]pyrazin-6-yl)-5H-pyrrolo[2,3-d]pyrimidin-6(7H)-one] |
| 108% | 704 nM | Cc1cncc(C2(C3CC3)C(=O)Nc3nc(-c4cn5ccnc5c(CCCC(F)(F)F)n4)nc(N)c32)n1 (single isomer, unassigned) [Example 365B, 4-amino-5-cyclopropyl-5-(6-methylpyrazin-2-yl)-2-(8-(4,4,4-trifluorobutyl)imidazo[1,2-a]pyrazin-6-yl)-5H-pyrrolo[2,3-d]pyrimidin-6(7H)-one] |
| 151% | 148 nM | Nc1nc(-c2cn3ccnc3c(CCCC(F)(F)F)n2)nc2c1C(c1cccc(C(F)(F)F)n1)(C1CC1)C(=O)N2 (single isomer, unassigned) [Example 368B, 4-amino-5-cyclopropyl-2-(8-(4,4,4-trifluorobutyl)imidazo[1,2-a]pyrazin-6-yl)-5-(6-(trifluoromethyl)pyridin-2-yl)-5H-pyrrolo[2,3-d]pyrimidin-6(7H)-one] |
| 41% | 931 nM | Cc1cc(F)cnc1C1(C2CC2)C(=O)Nc2nc(-c3cn4ccnc4c(CCC(F)(F)C(F)(F)F)n3)nc(N)c21 (single isomer, unassigned) [Example 375B, 4-amino-5-cyclopropyl-5-(5-fluoro-3-methylpyridin-2-yl)-2-(8-(3,3,4,4,4-pentafluorobutyl)imidazo[1,2-a]pyrazin-6-yl)-5H-pyrrolo[2,3-d]pyrimidin-6(7H)-one] |
| 90% | 86 nM | Cc1nc(C2(C3CC3)C(=O)Nc3nc(-c4cn5ccnc5c(CCCC(F)(F)F)n4)nc(N)c32)ccc1Cl (single isomer, unassigned) [Example 377B] |
